Experimental data published in PubChem BioAssay (NCI).
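How tested: cells in 96-well plates exposed to compound for 48 hours at five concentrations. At the TGI there is no net growth.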

What was measured:
Assay in all cases: NCI-60 cell line screen, 48 h
[1] = tested on: 786-0 renal
[2] = tested on: A498 renal
[3] = tested on: A549 NSCLC
[4] = tested on: ACHN renal
[5] = tested on: BT-549 breast
[6] = tested on: CAKI-1 renal
[7] = tested on: CCRF-CEM leukemia
[8] = tested on: COLO 205 colon
[9] = tested on: DU-145 prostate
[10] = tested on: EKVX NSCLC
[11] = tested on: HCC-2998 colon
[12] = tested on: HCT-116 colon
[13] = tested on: HCT-15 colon
[14] = tested on: HL-60(TB) leukemia
[15] = tested on: HOP-62 NSCLC
[16] = tested on: HOP-92 NSCLC
[17] = tested on: HS 578T breast
[18] = tested on: HT29 colon
[19] = tested on: K-562 leukemia
[20] = tested on: KM12 colon
[21] = tested on: LOX IMVI melanoma
[22] = tested on: M14 melanoma
[23] = tested on: MALME-3M melanoma
[24] = tested on: MCF7 breast
[25] = tested on: MDA-MB-231 breast
[26] = tested on: MDA-MB-435
[27] = tested on: MDA-N
[28] = tested on: MOLT-4 leukemia
[29] = tested on: NCI-H226 lung
[30] = tested on: NCI-H23 lung
[31] = tested on: NCI-H460 lung
[32] = tested on: NCI-H522 lung
[33] = tested on: NCI/ADR-RES ovarian
[34] = tested on: OVCAR-3 ovarian
[35] = tested on: OVCAR-4 ovarian
[36] = tested on: OVCAR-5 ovarian
[37] = tested on: OVCAR-8 ovarian
[38] = tested on: PC-3 prostate
[39] = tested on: RPMI-8226 leukemia
[40] = tested on: SF-268 CNS
[41] = tested on: SF-295 CNS
[42] = tested on: SF-539 CNS
[43] = tested on: SK-MEL-2 melanoma
[44] = tested on: SK-MEL-28 melanoma
[45] = tested on: SK-MEL-5 melanoma
[46] = tested on: SK-OV-3 ovarian
[47] = tested on: SN12C renal
[48] = tested on: SNB-19 CNS
[49] = tested on: SR leukemia
[50] = tested on: SW-620 colon
[51] = tested on: T-47D breast
[52] = tested on: TK-10 renal
[53] = tested on: U251 CNS
[54] = tested on: UACC-257 melanoma
[55] = tested on: UACC-62 melanoma
[56] = tested on: UO-31 renal
[57] = tested on: IGROV1 ovarian
[58] = tested on: RXF 393 renal
[59] = tested on: SNB-75 CNS

In the case of O=C1CSC(c2ccc([N+](=O)[O-])cc2)N1c1ccc(-c2ccc(-n3c(-c4ccccc4)nc4ccccc4c3=O)cc2)cc1 (stereo unspecified), the TGI [1] is reported as > 100 µM, the TGI [2] is reported as > 100 µM and the TGI [3] is reported as > 100 µM. The TGI [4] was > 100 µM, the TGI [5] was > 100 µM and the TGI [6] was > 100 µM. The TGI [7] was > 100 µM, the TGI [8] was > 100 µM and the TGI [9] was > 100 µM. For the same compound, the TGI [10] was > 100 µM, the TGI [11] was > 100 µM and the TGI [12] was > 100 µM. The TGI [13] was > 100 µM, the TGI [14] was > 100 µM and the TGI [15] was > 100 µM. For the same compound, the TGI [16] was > 100 µM, the TGI [17] was > 100 µM and the TGI [18] was > 100 µM. For the same compound, the TGI [19] was > 100 µM, the TGI [20] was > 100 µM and the TGI [21] was > 100 µM. The TGI [22] was > 100 µM, the TGI [23] was > 100 µM and the TGI [24] was > 100 µM. The TGI [25] was > 100 µM, the TGI [26] was > 100 µM and the TGI [27] was > 100 µM. The TGI [28] was > 100 µM, the TGI [29] was > 100 µM and the TGI [30] was > 100 µM. The TGI [31] was > 100 µM, the TGI [32] was > 100 µM and the TGI [33] was > 100 µM. The TGI [34] was > 100 µM, the TGI [35] was > 100 µM and the TGI [36] was > 100 µM. For the same compound, the TGI [37] was > 100 µM, the TGI [38] was > 100 µM and the TGI [39] was > 100 µM. The TGI [40] was > 100 µM, the TGI [41] was > 100 µM and the TGI [42] was > 100 µM. For the same compound, the TGI [43] was > 100 µM, the TGI [44] was > 100 µM and the TGI [45] was 62 µM. For the same compound, the TGI [46] was > 100 µM, the TGI [47] was > 100 µM and the TGI [48] was > 100 µM. For the same compound, the TGI [49] was 87 µM, the TGI [50] was > 100 µM and the TGI [51] was > 100 µM. For the same compound, the TGI [52] was > 100 µM, the TGI [53] was > 100 µM and the TGI [54] was > 100 µM. For the same compound, the TGI [55] was > 100 µM and the TGI [56] was > 100 µM.

In the case of COc1cccc2cc(C(=O)Nc3ccccc3)c(=N)oc12, the TGI [1] is reported as > 100 µM, the TGI [2] is reported as > 100 µM and the TGI [3] is reported as > 100 µM. For the same compound, the TGI [4] was > 100 µM, the TGI [5] was > 100 µM and the TGI [6] was > 100 µM. For the same compound, the TGI [7] was > 100 µM, the TGI [8] was > 100 µM and the TGI [9] was > 100 µM. The TGI [10] was > 100 µM, the TGI [12] was > 100 µM and the TGI [13] was > 100 µM. The TGI [14] was > 100 µM, the TGI [15] was > 100 µM and the TGI [16] was > 100 µM. For the same compound, the TGI [17] was > 84.7 µM, the TGI [18] was > 100 µM and the TGI [57] was > 100 µM. The TGI [19] was > 100 µM, the TGI [20] was > 100 µM and the TGI [21] was > 100 µM. For the same compound, the TGI [22] was > 100 µM, the TGI [23] was > 100 µM and the TGI [24] was > 100 µM. The TGI [25] was > 100 µM, the TGI [26] was > 100 µM and the TGI [27] was > 100 µM. The TGI [28] was > 100 µM, the TGI [29] was > 100 µM and the TGI [30] was > 100 µM. The TGI [31] was > 100 µM, the TGI [32] was > 100 µM and the TGI [33] was > 100 µM. The TGI [34] was > 100 µM, the TGI [35] was > 100 µM and the TGI [36] was > 100 µM. For the same compound, the TGI [37] was > 100 µM, the TGI [38] was > 100 µM and the TGI [39] was > 100 µM. For the same compound, the TGI [58] was > 100 µM, the TGI [40] was > 100 µM and the TGI [41] was > 100 µM. The TGI [42] was > 100 µM, the TGI [43] was > 100 µM and the TGI [44] was > 100 µM. The TGI [45] was > 100 µM, the TGI [46] was > 100 µM and the TGI [47] was > 100 µM. The TGI [48] was > 100 µM, the TGI [59] was > 87.9 µM and the TGI [49] was > 100 µM. For the same compound, the TGI [50] was > 100 µM, the TGI [51] was > 31.4 µM and the TGI [52] was > 100 µM. The TGI [53] was > 100 µM, the TGI [54] was > 100 µM and the TGI [55] was > 100 µM. The TGI [56] was > 100 µM.

In the case of COC(=O)C(Cc1c[nH]c2ccccc12)NP(=O)(O)OCC1OC(n2cc(Br)c(=O)[nH]c2=O)CC1O (stereo unspecified), the TGI [1] is reported as > 100 µM, the TGI [2] is reported as > 100 µM and the TGI [3] is reported as > 100 µM. For the same compound, the TGI [4] was > 100 µM, the TGI [5] was > 100 µM and the TGI [7] was > 100 µM. The TGI [8] was > 100 µM, the TGI [9] was > 100 µM and the TGI [10] was > 100 µM. The TGI [11] was > 100 µM, the TGI [12] was > 100 µM and the TGI [13] was > 100 µM. For the same compound, the TGI [14] was > 100 µM, the TGI [15] was > 100 µM and the TGI [16] was > 100 µM. For the same compound, the TGI [17] was > 100 µM, the TGI [18] was > 100 µM and the TGI [57] was > 100 µM. The TGI [19] was > 100 µM, the TGI [20] was > 100 µM and the TGI [21] was > 100 µM. For the same compound, the TGI [22] was > 100 µM, the TGI [23] was > 100 µM and the TGI [24] was > 100 µM. For the same compound, the TGI [25] was > 100 µM, the TGI [26] was > 100 µM and the TGI [27] was > 100 µM. The TGI [28] was > 100 µM, the TGI [29] was > 100 µM and the TGI [30] was > 100 µM. For the same compound, the TGI [31] was > 100 µM, the TGI [32] was > 100 µM and the TGI [33] was > 100 µM. For the same compound, the TGI [34] was > 100 µM, the TGI [35] was > 100 µM and the TGI [36] was > 100 µM. For the same compound, the TGI [37] was > 100 µM, the TGI [38] was > 100 µM and the TGI [58] was > 100 µM. The TGI [40] was > 100 µM, the TGI [41] was > 100 µM and the TGI [42] was > 100 µM. For the same compound, the TGI [43] was > 100 µM, the TGI [44] was > 100 µM and the TGI [45] was > 100 µM. For the same compound, the TGI [46] was > 100 µM, the TGI [47] was > 100 µM and the TGI [48] was > 100 µM. For the same compound, the TGI [59] was > 100 µM, the TGI [49] was > 100 µM and the TGI [50] was > 100 µM. The TGI [51] was > 100 µM, the TGI [52] was > 100 µM and the TGI [53] was > 100 µM. For the same compound, the TGI [54] was > 100 µM, the TGI [55] was > 100 µM and the TGI [56] was > 100 µM.
